The source of these data is PubChem BioAssay AID624129 (Sanford-Burnham Center for Chemical Genomics, 2012).

pIC50: −log10 of the molar value. Active and inactive are the calls of the source. The rule behind the calls is not given here.

Common to all, as to assay: CXCR6 receptor antagonists, dose response, cell-based, beta-arrestin, DiscoveRx, APJ panel, uHTS hits (AID 624129)
Assay [1] addresses C-C chemokine receptor type 6 (Homo sapiens) (UniProt P51684). Particulars: CXCR6 beta-arrestin (DiscoveRx) antagonist cell assay.
The target of assay [2] is Apelin receptor (Homo sapiens) (UniProt P35414). Particulars: CXCR6 beta-arrestin (DiscoveRx) antagonist cell assay, APJ.
For assay [3], the target named is Beta-galactosidase (Escherichia coli) (UniProt Q8VNN2). As to conditions: CXCR6 beta-arrestin (DiscoveRx) antagonist cell assay, b-galactosidase; for IC50: dose range 1; for pIC50: dose range 1, mean IC50 across replicates.
The target of assay [4] is C-X-C chemokine receptor type 6 (Homo sapiens) (UniProt O00574). Particulars: CXCR6 beta-arrestin (DiscoveRx) antagonist cell assay; for inhibition: CXCR6, run 1, dose range 2, at 80 µM (top of the series).
The mark [5] stands for this setting: CCR6, dose range 1, mean IC50 across replicates.
The mark [6] stands for this setting: dose range 1, mean IC50 across replicates.
Where [7] appears, read: CXCR6, dose range 1, mean IC50 across replicates.

Sequence of C-X-C chemokine receptor type 6 (Homo sapiens) (O00574 whole entry, looked up): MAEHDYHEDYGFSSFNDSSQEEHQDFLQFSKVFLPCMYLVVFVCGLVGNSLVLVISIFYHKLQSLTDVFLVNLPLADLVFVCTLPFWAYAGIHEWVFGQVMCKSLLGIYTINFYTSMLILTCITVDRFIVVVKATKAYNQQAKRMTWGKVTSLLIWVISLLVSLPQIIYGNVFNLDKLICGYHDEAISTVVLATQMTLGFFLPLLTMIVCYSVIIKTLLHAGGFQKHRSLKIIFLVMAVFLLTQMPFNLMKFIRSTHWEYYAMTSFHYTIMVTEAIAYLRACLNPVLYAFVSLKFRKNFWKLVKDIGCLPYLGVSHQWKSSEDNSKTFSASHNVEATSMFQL
Sequence of Beta-galactosidase (Escherichia coli) (Q8VNN2 whole entry, looked up): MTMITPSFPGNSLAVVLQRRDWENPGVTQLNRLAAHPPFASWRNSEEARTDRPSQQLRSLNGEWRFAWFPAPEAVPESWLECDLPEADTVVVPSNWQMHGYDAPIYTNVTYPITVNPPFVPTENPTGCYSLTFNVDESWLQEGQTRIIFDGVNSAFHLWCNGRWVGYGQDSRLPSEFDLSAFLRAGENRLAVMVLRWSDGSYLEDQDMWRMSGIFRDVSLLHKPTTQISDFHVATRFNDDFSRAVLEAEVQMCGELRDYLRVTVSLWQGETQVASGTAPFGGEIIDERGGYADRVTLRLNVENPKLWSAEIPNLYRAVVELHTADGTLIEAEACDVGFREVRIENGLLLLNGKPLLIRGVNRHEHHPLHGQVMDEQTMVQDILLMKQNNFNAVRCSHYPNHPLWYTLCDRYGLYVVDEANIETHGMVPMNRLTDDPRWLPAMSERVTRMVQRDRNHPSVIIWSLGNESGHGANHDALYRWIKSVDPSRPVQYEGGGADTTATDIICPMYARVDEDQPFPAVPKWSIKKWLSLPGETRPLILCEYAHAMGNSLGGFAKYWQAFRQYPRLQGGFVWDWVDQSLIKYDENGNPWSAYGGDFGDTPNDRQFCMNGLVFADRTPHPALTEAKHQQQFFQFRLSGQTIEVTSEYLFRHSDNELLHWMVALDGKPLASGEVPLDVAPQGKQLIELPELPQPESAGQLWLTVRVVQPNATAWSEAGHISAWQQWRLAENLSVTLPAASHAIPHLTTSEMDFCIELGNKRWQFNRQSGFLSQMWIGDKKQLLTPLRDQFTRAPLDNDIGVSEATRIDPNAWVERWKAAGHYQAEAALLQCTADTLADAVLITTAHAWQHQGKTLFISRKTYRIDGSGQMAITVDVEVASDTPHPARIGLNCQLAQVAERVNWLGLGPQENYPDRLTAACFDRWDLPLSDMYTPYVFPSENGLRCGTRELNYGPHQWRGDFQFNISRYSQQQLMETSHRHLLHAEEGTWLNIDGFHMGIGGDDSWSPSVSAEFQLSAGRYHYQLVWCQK

As usually defined, the pIC50 is the IC50 on a negative log10 scale, so that one unit is a factor of ten. For orientation: IC50 means the concentration that inhibits the measured activity by half. Consider `Cc1ccc2c(c1)C1CN(C)CCC1N2C(=S)NC(=O)c1ccc(Br)cc1` (centres undefined), for which the pIC50 in assay [1] (CCR6, dose range 1) is 4.90; in assay [1] (setting [5]), 4.85; in assay [1] (CCR6, run 2, dose range 1) it was 4.81; in assay [2] (dose range 1), 4.89; in assay [2] (setting [6]), 4.92; in assay [2] (run 2, dose range 1) it was 4.96. Besides, the pIC50 in assay [2] (run 3, dose range 1) is 4.91; in assay [3], under 4.10; in assay [4] (setting [7]), 4.90; in assay [4] (CXCR6, run 1, dose range 2) it was 5.16; in assay [4] (CXCR6, run 2, dose range 1) it was 4.74; in assay [4] (CXCR6, run 2, dose range 2), 4.95. Further, the IC50 in assay [3] was > 80 µM (inactive). Besides, the IC50 entry in assay [4] (CXCR6, dose range 1) is “inactive”.

With `O=C1C(Cc2ccccc2)Nc2ncnc(N3CCN(c4ccccc4)CC3)c2N1Cc1ccc(Cl)cc1` (centres undefined), the negative logarithm of the IC50 (pIC50) was 5.48 in assay [1] (CCR6, dose range 1); 5.57 in assay [1] (setting [5]); 5.69 in assay [1] (CCR6, run 2, dose range 1); 4.69 in assay [2] (setting [6]); 5.24 in assay [2] (run 2, dose range 1); 4.27 in assay [2] (run 3, dose range 1). Further, the pIC50 in assay [3] is under 4.10; in assay [4] (CXCR6, dose range 1) it was 5.70; in assay [4] (setting [7]), 5.71; in assay [4] (CXCR6, run 1, dose range 2), 5.75; in assay [4] (CXCR6, run 2, dose range 1) it was 5.69; in assay [4] (CXCR6, run 2, dose range 2), 5.71. Further, the IC50 result in assay [2] (dose range 1) is “inactive”. In addition, the IC50 in assay [3] was > 80 µM (inactive).

For orientation: inhibition means the change of the read-out against control, counted positive when it falls. Regarding `O=S(=O)(Nc1cccc2cccnc12)c1ccccc1`, the pIC50 was 5.12 in assay [1] (CCR6, dose range 1); 5.01 in assay [1] (setting [5]); 4.93 in assay [1] (CCR6, run 2, dose range 1); 5.19 in assay [2] (dose range 1); 5.00 in assay [2] (setting [6]); 4.97 in assay [2] (run 2, dose range 1). Moreover, the pIC50 is 4.90 in assay [2] (run 3, dose range 1); under 4.10 in assay [3]; 4.84 in assay [4] (setting [7]); 4.84 in assay [4] (CXCR6, run 2, dose range 1). Further, the IC50 in assay [3] was > 80 µM (inactive). The IC50 entry in assay [4] (CXCR6, dose range 1) was “inactive”. Besides, in assay [4], the inhibition worked out at 116%.

Take `CCS(=O)(=O)c1ncc(Cl)c(C(=O)Nc2ccc(S(=O)(=O)N3CCC(C)CC3)cc2)n1`: the pIC50 in assay [1] (CCR6, dose range 1) was 5.23; in assay [1] (setting [5]), 5.24; in assay [1] (CCR6, run 2, dose range 1) it was 5.26; in assay [2] (dose range 1), 5.11; in assay [2] (setting [6]), 5.15; in assay [2] (run 2, dose range 1), 5.19. In addition, the pIC50 in assay [2] (run 3, dose range 1) was 5.14; in assay [3] it was under 4.10; in assay [4] (CXCR6, dose range 1), 5.13; in assay [4] (setting [7]) it was 5.09; in assay [4] (CXCR6, run 1, dose range 2), 5.08; in assay [4] (CXCR6, run 2, dose range 1), 5.10. This compound gave a pIC50 in assay [4] (CXCR6, run 2, dose range 2) of 5.03. Besides, the IC50 in assay [3] was > 80 µM (inactive).

Regarding `COc1ccc(C(=O)/C=C/C(=O)N(CC(=O)NC2CCCCC2)Cc2ccccc2)c(O)c1`, the pIC50 is under 4.10 in assay [1] (setting [5]); under 4.10 in assay [1] (CCR6, run 2, dose range 1); under 4.10 in assay [2] (setting [6]); under 4.10 in assay [2] (run 2, dose range 1); under 4.10 in assay [2] (run 3, dose range 1); under 4.10 in assay [3]. Besides, the pIC50 was under 4.10 in assay [4] (setting [7]) and under 4.10 in assay [4] (CXCR6, run 2, dose range 1). Also, the IC50 is > 80 µM (inactive) in assay [3] and > 80 µM (inactive) in assay [4] (CXCR6, dose range 1). For the same compound, the inhibition in assay [4] was 9.34%.

Regarding `CC(=O)OC1C2(CC3N4C(=O)C5(CO)SSC4(CC31O)C(=O)N5C)OC(C)C(C)(C)C2=O` (centres undefined), the pIC50 in assay [1] (CCR6, dose range 1) was 5.87; in assay [1] (setting [5]), 5.87; in assay [1] (CCR6, run 2, dose range 1), 5.87; in assay [2] (dose range 1), 5.96; in assay [2] (setting [6]), 5.91; in assay [2] (run 2, dose range 1) it was 6.04. Further, the pIC50 in assay [2] (run 3, dose range 1) was 5.79; in assay [3], under 4.10; in assay [4] (CXCR6, dose range 1), 6.03; in assay [4] (setting [7]) it was 6.14; in assay [4] (CXCR6, run 1, dose range 2) it was 6.30; in assay [4] (CXCR6, run 2, dose range 1), 6.03. For the same compound, the negative-log IC50 (pIC50) in assay [4] (CXCR6, run 2, dose range 2) is 6.27. Moreover, in assay [3], the IC50 was > 80 µM (inactive).

Turning to `NNc1nc(-c2ccccc2)cc(-c2ccccc2O)n1`, the negative-log IC50 (pIC50) was 5.11 in assay [1] (CCR6, dose range 1); 5.14 in assay [1] (setting [5]); 5.17 in assay [1] (CCR6, run 2, dose range 1); 5.24 in assay [2] (dose range 1); 5.07 in assay [2] (setting [6]); 5.01 in assay [2] (run 2, dose range 1). Moreover, the pIC50 in assay [2] (run 3, dose range 1) is 5.00; in assay [3], under 4.10; in assay [4] (CXCR6, dose range 1), 5.02; in assay [4] (setting [7]) it was 5.16; in assay [4] (CXCR6, run 1, dose range 2) it was 5.44; in assay [4] (CXCR6, run 2, dose range 1), 5.10. Also, in assay [4] (CXCR6, run 2, dose range 2), the pIC50 is 5.20. For the same compound, in assay [3], the IC50 was > 80 µM (inactive).
